Test results as given in US11034650B2, “Compounds useful for treating a Mannheimia haemolytica or Histophilus somni infection” (Intervet Inc., priority 2016, dated 2021).
≈ marks a conversion by molar mass, not a printed value.

How the values were obtained:
Type in all cases: cell-based
[1] = test system: Mannheimia haemolytica MH 13093 (XB0472-6014.1, BRD field isolate); experiment: MIC, broth-microdilution (CLSI VET01-A4), strain MH 13093; conditions: Mannheimia haemolytica strain MH 13093, broth-microdilution; unit assumed
Summary of the method: (§1)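 Growth inhibition is scored visually on a doubling dilution series. The reported MIC corresponds to the lowest concentration free of turbidity, with results assessed under CLSI VET01-S3.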

[2] = test system: Pasteurella multocida PM 6267 (P 2225 (L386), reference strain, mouse infection strain); experiment: MIC, broth-microdilution (CLSI VET01-A4), strain PM 6267; conditions: Pasteurella multocida strain PM 6267, broth-microdilution; unit assumed
Summary of the method: as §1

[3] = test system: Mannheimia haemolytica MH 6374 (ATCC 33396, reference strain); experiment: MIC, broth-microdilution (CLSI VET01-A4), strain MH 6374; conditions: Mannheimia haemolytica strain MH 6374, broth-microdilution; unit assumed
Summary of the method: as §1

[4] = test system: Mannheimia haemolytica MH 13065 (XB0446-6003.9, BRD field isolate); experiment: MIC, broth-microdilution (CLSI VET01-A4), strain MH 13065; conditions: Mannheimia haemolytica strain MH 13065, broth-microdilution; unit assumed
Summary of the method: as §1

[5] = test system: Mannheimia haemolytica MH 6357 (M7/2, reference strain, cattle infection strain); experiment: MIC, broth-microdilution (CLSI VET01-A4), strain MH 6357; conditions: Mannheimia haemolytica strain MH 6357, broth-microdilution; unit assumed
Summary of the method: as §1

[6] = test system: Mannheimia haemolytica MH 10720 (154, BRD field isolate); experiment: MIC, broth-microdilution (CLSI VET01-A4), strain MH 10720; conditions: Mannheimia haemolytica strain MH 10720, broth-microdilution; unit assumed
Summary of the method: as §1

[7] = test system: Pasteurella multocida PM 12080 (IV102277-0093, BRD field isolate); experiment: MIC, broth-microdilution (CLSI VET01-A4), strain PM 12080; conditions: Pasteurella multocida strain PM 12080, broth-microdilution; unit assumed
Summary of the method: as §1

[8] = test system: Pasteurella multocida PM 10775 (080130003051, BRD field isolate); experiment: MIC, broth-microdilution (CLSI VET01-A4), strain PM 10775; conditions: Pasteurella multocida strain PM 10775, broth-microdilution; unit assumed
Summary of the method: as §1

[9] = test system: Pasteurella multocida PM 6391 (ATCC 43137, reference strain); experiment: MIC, broth-microdilution (CLSI VET01-A4), strain PM 6391; conditions: Pasteurella multocida strain PM 6391, broth-microdilution; unit assumed
Summary of the method: as §1

[10] = test system: Mannheimia haemolytica MH 12587 (1071, BRD field isolate, macrolide-resistance: erm+, E+); experiment: MIC, broth-microdilution (CLSI VET01-A4), strain MH 12587; conditions: Mannheimia haemolytica strain MH 12587, broth-microdilution; unit assumed
Summary of the method: as §1

With `COc1ccc(CNCc2ccc(C#Cc3ccc(C(=O)N[C@@H](C(C)=O)C(=O)NO)cc3)cc2)cc1` [Compound 401] the MIC MH 13093 [1] was 1.6 µg/mL (≈ 3.3 µM), the MIC PM 6267 [2] was 6.3 µg/mL (≈ 13 µM) and the MIC MH 6374 [3] was 1.6 µg/mL (≈ 3.3 µM). It also gave an MIC MH 13065 [4] of 1.6 µg/mL (≈ 3.3 µM), an MIC MH 6357 [5] of 1.6 µg/mL (≈ 3.3 µM) and an MIC MH 10720 [6] of 3.1 µg/mL (≈ 6.38 µM). The MIC PM 12080 [7] was 0.8 µg/mL (≈ 1.65 µM), the MIC PM 10775 [8] was 1.6 µg/mL (≈ 3.3 µM) and the MIC PM 6391 [9] was 0.2 µg/mL (≈ 0.412 µM). For the same compound, the MIC MH 12587 [10] was 0.4 µg/mL (≈ 0.824 µM).
Compound `CC[C@H](C)[C@H](NC(=O)c1ccc(C#Cc2ccc(CNCc3ccnc(Cl)c3)cc2)cc1)C(=O)NO` [Compound 190] has an MIC MH 13093 [1] of 1.6 µg/mL (≈ 3.17 µM), an MIC PM 6267 [2] of at most 0.1 µg/mL and an MIC MH 6374 [3] of 3.1 µg/mL (≈ 6.14 µM). It also gave an MIC MH 13065 [4] of 1.6 µg/mL (≈ 3.17 µM), an MIC MH 6357 [5] of 1.6 µg/mL (≈ 3.17 µM) and an MIC MH 10720 [6] of 0.4 µg/mL (≈ 0.792 µM). For the same compound, the MIC PM 12080 [7] was 0.2 µg/mL (≈ 0.396 µM), the MIC PM 10775 [8] was at most 0.1 µg/mL and the MIC PM 6391 [9] was 0.4 µg/mL (≈ 0.792 µM). For the same compound, the MIC MH 12587 [10] was 3.1 µg/mL (≈ 6.14 µM).
`CSC(C)(C)[C@H](NC(=O)c1ccc(C#Cc2ccc(CNCc3cccnc3)cc2)cc1)C(=O)NO` [Compound 247] gave an MIC MH 13093 [1] of 0.8 µg/mL (≈ 1.59 µM), an MIC PM 6267 [2] of at most 0.1 µg/mL and an MIC MH 6374 [3] of 0.8 µg/mL (≈ 1.59 µM). The MIC MH 13065 [4] was 0.4 µg/mL (≈ 0.796 µM), the MIC MH 6357 [5] was 0.4 µg/mL (≈ 0.796 µM) and the MIC MH 10720 [6] was 0.2 µg/mL (≈ 0.398 µM). The MIC PM 12080 [7] was 0.2 µg/mL (≈ 0.398 µM), the MIC PM 10775 [8] was at most 0.1 µg/mL and the MIC PM 6391 [9] was 0.8 µg/mL (≈ 1.59 µM). It also gave an MIC MH 12587 [10] of 0.8 µg/mL (≈ 1.59 µM).
`C=CCNCc1ccc(C#Cc2ccc(C(=O)N[C@H](C(=O)NO)C(C)(C)SC)cc2)cc1` [C.236] gave an MIC MH 13093 [1] of 0.8 µg/mL (≈ 1.77 µM), an MIC PM 6267 [2] of at most 0.1 µg/mL and an MIC MH 6374 [3] of 0.8 µg/mL (≈ 1.77 µM). The MIC MH 13065 [4] was 0.8 µg/mL (≈ 1.77 µM), the MIC MH 6357 [5] was 0.8 µg/mL (≈ 1.77 µM) and the MIC MH 10720 [6] was at most 0.1 µg/mL. The MIC PM 12080 [7] was 0.4 µg/mL (≈ 0.886 µM), the MIC PM 10775 [8] was at most 0.1 µg/mL and the MIC PM 6391 [9] was 0.4 µg/mL (≈ 0.886 µM). It also gave an MIC MH 12587 [10] of 1.6 µg/mL (≈ 3.54 µM).
With `CC(C)[C@H](NC(=O)c1ccc(C#Cc2ccc(CNCc3cccnc3)cc2)cc1)C(=O)NO` [Compound 167] the MIC MH 13093 [1] was 0.8 µg/mL (≈ 1.75 µM), the MIC PM 6267 [2] was at most 0.1 µg/mL and the MIC MH 6374 [3] was 0.4 µg/mL (≈ 0.876 µM). It also gave an MIC MH 13065 [4] of 0.8 µg/mL (≈ 1.75 µM), an MIC MH 6357 [5] of 0.4 µg/mL (≈ 0.876 µM) and an MIC MH 10720 [6] of at most 0.1 µg/mL. For the same compound, the MIC PM 12080 [7] was 0.2 µg/mL (≈ 0.438 µM), the MIC PM 10775 [8] was at most 0.1 µg/mL and the MIC PM 6391 [9] was 0.4 µg/mL (≈ 0.876 µM). It also gave an MIC MH 12587 [10] of 0.8 µg/mL (≈ 1.75 µM).
`CC[C@H](C)[C@H](NC(=O)c1ccc(C#Cc2ccc(CNCCCOC)cc2)cc1)C(=O)NO` [Compound 177] was tested, and the MIC MH 13093 [1] was 6.3 µg/mL (≈ 14 µM), the MIC PM 6267 [2] was 0.8 µg/mL (≈ 1.77 µM) and the MIC MH 6374 [3] was 6.3 µg/mL (≈ 14 µM). It also gave an MIC MH 13065 [4] of 6.3 µg/mL (≈ 14 µM), an MIC MH 6357 [5] of 3.1 µg/mL (≈ 6.86 µM) and an MIC MH 10720 [6] of 1.6 µg/mL (≈ 3.54 µM). It also gave an MIC PM 12080 [7] of 1.6 µg/mL (≈ 3.54 µM), an MIC PM 10775 [8] of at most 0.1 µg/mL and an MIC PM 6391 [9] of 3.1 µg/mL (≈ 6.86 µM). It also gave an MIC MH 12587 [10] of 12.5 µg/mL (≈ 27.7 µM).
Compound `O=C(N[C@@H](CO)C(=O)NO)c1ccc(C#Cc2ccc(CNCc3cccnc3)cc2)cc1` [Compound 157] has an MIC MH 13093 [1] of 6.3 µg/mL (≈ 14.2 µM), an MIC PM 6267 [2] of 0.4 µg/mL (≈ 0.9 µM) and an MIC MH 6374 [3] of 1.6 µg/mL (≈ 3.6 µM). The MIC MH 13065 [4] was 3.1 µg/mL (≈ 6.97 µM), the MIC MH 6357 [5] was 1.6 µg/mL (≈ 3.6 µM) and the MIC MH 10720 [6] was 0.8 µg/mL (≈ 1.8 µM). For the same compound, the MIC PM 12080 [7] was 0.8 µg/mL (≈ 1.8 µM), the MIC PM 10775 [8] was at most 0.1 µg/mL and the MIC PM 6391 [9] was 0.8 µg/mL (≈ 1.8 µM). It also gave an MIC MH 12587 [10] of 6.3 µg/mL (≈ 14.2 µM).
`CSC(C)(C)[C@H](NC(=O)c1ccc(C#Cc2ccc(CNCc3ncc(C)o3)nc2)cc1)C(=O)NO` [Compound 347] was tested, and the MIC MH 13093 [1] was 1.6 µg/mL (≈ 3.15 µM), the MIC PM 6267 [2] was 1.6 µg/mL (≈ 3.15 µM) and the MIC MH 6374 [3] was 1.6 µg/mL (≈ 3.15 µM). It also gave an MIC MH 13065 [4] of 1.6 µg/mL (≈ 3.15 µM), an MIC MH 6357 [5] of 0.8 µg/mL (≈ 1.58 µM) and an MIC MH 10720 [6] of 0.2 µg/mL (≈ 0.394 µM). For the same compound, the MIC PM 12080 [7] was 0.8 µg/mL (≈ 1.58 µM), the MIC PM 10775 [8] was at most 0.1 µg/mL and the MIC PM 6391 [9] was 0.8 µg/mL (≈ 1.58 µM). The MIC MH 12587 [10] was 3.1 µg/mL (≈ 6.11 µM).
`CSC(C)(C)[C@H](NC(=O)c1ccc(C#Cc2ccc(CNCC3CCCO3)cc2)cc1)C(=O)NO` (some centres unmarked) [Compound 253] showed an MIC MH 13093 [1] of 3.1 µg/mL (≈ 6.25 µM), an MIC PM 6267 [2] of at most 0.1 µg/mL and an MIC MH 6374 [3] of 3.1 µg/mL (≈ 6.25 µM). The MIC MH 13065 [4] was 1.6 µg/mL (≈ 3.23 µM), the MIC MH 6357 [5] was 3.1 µg/mL (≈ 6.25 µM) and the MIC MH 10720 [6] was 0.8 µg/mL (≈ 1.61 µM). The MIC PM 12080 [7] was 0.4 µg/mL (≈ 0.807 µM), the MIC PM 10775 [8] was at most 0.1 µg/mL and the MIC PM 6391 [9] was 0.4 µg/mL (≈ 0.807 µM). The MIC MH 12587 [10] was 3.1 µg/mL (≈ 6.25 µM).
With `CC(C)(O)[C@H](NC(=O)c1ccc(C#Cc2ccc(CNCc3cccnc3)cc2)cc1)C(=O)NO` [Compound 228] the MIC MH 13093 [1] was 0.8 µg/mL (≈ 1.69 µM), the MIC PM 6267 [2] was at most 0.1 µg/mL and the MIC MH 6374 [3] was 0.4 µg/mL (≈ 0.846 µM). For the same compound, the MIC MH 13065 [4] was 0.4 µg/mL (≈ 0.846 µM), the MIC MH 6357 [5] was 0.8 µg/mL (≈ 1.69 µM) and the MIC MH 10720 [6] was at most 0.1 µg/mL. It also gave an MIC PM 12080 [7] of at most 0.1 µg/mL, an MIC PM 10775 [8] of at most 0.1 µg/mL and an MIC PM 6391 [9] of at most 0.1 µg/mL. For the same compound, the MIC MH 12587 [10] was 1.6 µg/mL (≈ 3.39 µM).
Compound `CC(C)([C@H](NC(=O)c1ccc(C#Cc2ccc(CNCc3nccs3)s2)cc1)C(=O)NO)S(C)(=O)=O` [Compound 369] has an MIC MH 13093 [1] of 0.4 µg/mL (≈ 0.732 µM), an MIC PM 6267 [2] of at most 0.1 µg/mL and an MIC MH 6374 [3] of 0.2 µg/mL (≈ 0.366 µM). It also gave an MIC MH 13065 [4] of 0.4 µg/mL (≈ 0.732 µM), an MIC MH 6357 [5] of 0.4 µg/mL (≈ 0.732 µM) and an MIC MH 10720 [6] of at most 0.1 µg/mL. The MIC PM 12080 [7] was at most 0.1 µg/mL, the MIC PM 10775 [8] was at most 0.1 µg/mL and the MIC PM 6391 [9] was at most 0.1 µg/mL. For the same compound, the MIC MH 12587 [10] was 0.4 µg/mL (≈ 0.732 µM).
